Data published in patent US6333338A, “Bispiperidines as antithrombotic agents” (Laboratoire L. Lafon, priority 1998, dated 2001).
Structures can show the parent of a compound that is named as a salt. Where two headings read alike, the source gives them in different places.

Assays:
human platelets = experiment: In vitro inhibition of collagen-induced platelet aggregation, human platelets (PRP); format: cell-based; details: 0.05 h, collagen 5 μg/ml, 3 minutes of contact at 37° C., read-out: IC50 (M) in vitro, Man
Description: (§1) A study of the inhibitory activity of the compounds of formula I on platelet aggregation was carried out in vitro, i.e. by direct contact of solutions of variable concentrations of the compounds with platelets freshly separated from a sample of total blood, taken under standardized conditions, from laboratory animals (guinea pigs) and from healthy human subjects who have not received any substances or drugs that might interfere with blood clotting. The anti-platelet-aggregating activity was also studied ex vivo/vitro, i.e. after administration of the substances claimed to guinea pigs to measure the intensity and duration of the anti-aggregating action induced by the fraction of the test product absorbed and circulating in the blood.
Venous blood is taken from a group of ten healthy human subjects of the same age, by puncture into a vein of the fold of the elbow and is collected in a glass tube containing aqueous 0.129 M sodium citrate solution (1 volume of citrate solution per 9 volumes of blood). Each tube is then centrifuged a first time at 20° C. and 100 g for 15 minutes in order to obtain the platelet-rich plasma (PRP); after removing this PRP, the tube is again centrifuged at 2000 g for 15 minutes in order this time to remove the platelet-poor plasma (PPP).
For each identified sample of PRP, the platelets are counted using a Coulter ZM counter. Each sample is then used to study the variation in inhibition of the platelet aggregation triggered by the addition of a Chromo-par Reagent collagen glucose solution from Coultronics (used at a concentration of 5 μg/ml) as a function of the addition of increasing concentrations of each compound in a range covering the interval 10^-8 M→10^-5 M, (example of concentrations: 10^-8 M, […], 6×10^-6 M, 4×10^-6 M, 2×10^-6 M, 10^-6 M, […], 10^-5 M). Beforehand, for each compound, an aqueous 10^-3 M solution is prepared. A control test intended to check the possible effect of the solvents (reference value) on the platelet aggregation is introduced into each measurement series, and is measured after 3 minutes of contact at 37° C. with agitation.
From the percentages of inhibition of the platelet aggregation measured for each concentration of each compound, the 50% inhibitory concentration (IC50) is calculated.

guinea pig platelets [1] = experiment: In vitro inhibition of collagen-induced platelet aggregation, guinea pig platelets (PRP); format: cell-based, guinea pig (male Dunkin-Hartley); details: Cavia porcellus, Platelet, 0.05 h, collagen 1 μg/ml, 3 minutes of contact at 37° C.
Description: as §1
Blood is taken by intracardiac puncture from male Dunkin-Hartley guinea pigs (weighing about 330 g), at a rate of 4.5 ml per 0.5 ml of trisodium citrate (concentration of the aqueous solution: 1.55%) in order to prevent all trace of clotting. The platelet-rich plasma (PRP) is obtained by centrifuging the tubes of total blood for 15 minutes at 150 g.
The PRPs are collected as "pools". The platelets contained in these pools are counted using a Coulter ZM haematology automatic device: if necessary, a dilution is carried out in order for the platelet concentration in the plasma to be between 200,000 and 400,000 platelets/mm^3. Simultaneously, other samples of these pools serve to prepare the platelet-poor plasma (PPP) by centrifugation at 1500 g for 15 minutes.
The kinetic study of the platelet aggregation is carried out by adding a collagen solution (1 μg/ml) to a volume of PRP, using a Chrono-log Corporation aggregometer (490-D1 or 560 VS) which uses an optical detection of the appearance of the thrombus.
The measurements of the aggregation inhibition are carried out after 3 minutes of contact at 37° C. with agitation.

guinea pig platelets [2] = experiment: Ex vivo/vitro inhibition of platelet aggregation after administration via the gastric route in guinea pigs; parameters: species or system guinea pig (Dunkin-Hartley); details: Cavia porcellus, Platelet, fasted guinea pigs
Description: as §1, with “blood. Evaluation of the anti-platelet-aggregating activity of the compounds is carried out in the same guinea pigs as those mentioned above (Dunkin-Hartley strain). […] The allocation of the treatments to the animals is random. The blood is taken and then treated under the same conditions as those described above for the in vitro studies. The results of the inhibition of the platelet aggregation obtained for each test concentration make it possible to calculate the IC50 concentration of each test product and the kinetics of the inhibitory effect and its duration of action.” for “blood.”

[3] = 1 h before blood sampling, read-out: % of g.r. inhibition guinea pig ex vivo, d = 10 mg/kg, 1 h
[4] = 1 h before blood sampling, read-out: % of g.r. inhibition guinea pig ex vivo, d = 150 mg/kg, 1 h
[5] = 2 h before blood sampling, read-out: % of g.r. inhibition guinea pig ex vivo, d = 150 mg/kg, 2 h
[6] = 2 h before blood sampling, read-out: % of g.r. inhibition guinea pig ex vivo, d = 10 mg/kg, 2 h

| Compound | IC50 (human platelets) | IC50 (guinea pig platelets [1]) | inhibition at 10 mg/kg (guinea pig platelets [2]; [3]) | inhibition at 150 mg/kg (guinea pig platelets [2]; [4]) | inhibition at 150 mg/kg (guinea pig platelets [2]; [5]) | inhibition at 10 mg/kg (guinea pig platelets [2]; [6]) |
| --- | --- | --- | --- | --- | --- | --- |
| O=C(O)C[C@H](NC(=O)CNC(=O)C(CCC1CCNCC1)CCC1CCNCC1)C(=O)NC12CC3CC(CC(C3)C1)C2 [Example 16, (3S)-4-(1-Adamantylamino)-4-oxo-3-{[2-({4-(4-piperidyl)-2-[2-(4-piperidyl)ethyl]butanoyl}amino)acetyl]amino}butanoic Acid Dihydrochloride] | 8.5e-07 M | 3500 nM | -5% | -54% | -47% |  |
| O=C(O)C[C@H](NC(=O)CNC(=O)C(CCC1CCNCC1)CCC1CCNCC1)C(=O)N1CCC(Cc2ccccc2)CC1 [Example 29, (3S)-4-oxo-4-(4-Benzylpiperidino)-3-{[2-({4-(4-piperidyl)-2-[2-(4-piperidyl)ethyl]butanoyl}amino)acetyl]amino}-butanoic Acid Dihydrochloride] | 1e-05 M | 13000 nM |  | -35% | -23% |  |
| COc1cc2ccc(S(=O)(=O)N[C@@H](CNC(=O)CNC(=O)C(CCC3CCNCC3)CCC3CCNCC3)C(=O)O)cc2cc1OC [Example 53, 2-{[(6,7-Dimethoxy-2-naphthyl)sulphonyl]amino}-3-{[2-({4-(4-piperidyl)-2-[2-(4-piperidyl)ethyl]butanoyl}amino)acetyl]amino}propanoic Acid Dihydrochloride] | 7.3e-08 M | 37 nM | -73% |  |  | -9% |
| O=C(O)C[C@H](NC(=O)CNC(=O)C(CCC1CCNCC1)CCC1CCNCC1)C(=O)NCCc1cccc2[nH]ccc12 [Example 17, (3S)-4-{[2-(1H-Indol-4-yl)ethyl]amino}-4-oxo-3-{[2-({4-(4-piperidyl)-2-[2-(4-piperidyl)ethyl]butanoyl}amino)acetyl]amino}butanoic Acid Dihydrochloride] | 6e-06 M | 7400 nM |  | -19% |  |  |
| O=C(CNC(=O)C(CCC1CCNCC1)CCC1CCNCC1)NC[C@H](NS(=O)(=O)c1ccc2ccccc2c1)C(=O)O [Example 27, (2S)-2-[(2-Naphthylsulphonyl)amino]-3-{[2-({4-(4-piperidyl)-2-[2-(4-piperidyl)ethyl]butanoyl}amino)acetyl]amino}propanoic Acid Dihydrochloride] | 4.4e-08 M | 19 nM |  |  |  |  |
| CCCc1ccc(S(=O)(=O)NC(CNC(=O)CNC(=O)C(CCC2CCNCC2)CCC2CCNCC2)C(=O)O)cc1 (centres unmarked) [Example 28, 2-{[(4-Propylphenyl)sulphonyl]amino}-3-{[2-({4-(4-piperidyl)-2-[2-(4-piperidyl)ethyl]butanoyl}amino)acetyl]amino}propanoic Acid Dihydrochloride] | 1.1e-06 M | 1500 nM | -18% | -73% | -75% |  |
| CN(C)c1cccc2c(S(=O)(=O)NC(CNC(=O)CNC(=O)C(CCC3CCNCC3)CCC3CCNCC3)C(=O)O)cccc12 (centres unmarked) [Example 49, 2-({[5-(Dimethylamino)-1-naphthyl)sulphonyl}amino)-3-{[2-({4-(4-piperidyl)-2-[2-(4-piperidyl)ethyl]butanoyl}amino)acetyl]amino}propanoic Acid Trihydrochloride] | 5.6e-08 M | 49 nM | -69% |  |  | -68% |
| O=C(O)CC(NC(=O)CNC(=O)C(CCC1CCNCC1)CCC1CCNCC1)c1cccnc1 (centres unmarked) [Example 12, 3-(3-Pyridyl)-3-{[2-({4-(4-piperidyl)-2-[2-(4-piperidyl)ethyl]butanoyl}amino)acetyl]amino}propanoic Acid Trihydrochloride] | 1.5e-06 M | 980 nM |  | -74% | -68% |  |
| COc1ccc(S(=O)(=O)N[C@@H](CNC(=O)CNC(=O)C(CCC2CCNCC2)CCC2CCNCC2)C(=O)O)c2ccccc12 [Example 52, 2-([(4-Methoxy-1-naphthyl)sulphonyl]amino)-3-{[2-({4-(4-piperidyl)-2-[2-(4-piperidyl)ethyl]butanoyl}amino)acetyl]amino}propanoic Acid Dihydrochloride] | 9.3e-08 M | 35 nM | -58% |  |  | -30% |
| O=C(CNC(=O)C(CCC1CCNCC1)CCC1CCNCC1)NCC(NS(=O)(=O)c1ccc(Cl)c2ccccc12)C(=O)O (centres unmarked) [Example 63, 2-{[(4-Chloro-1-naphthyl)sulphonyl]amino}-3-{[2-({4-(4-piperidyl)-2-[2-(4-piperidyl)ethyl]butanoyl}amino)acetyl]amino}propanoic Acid Dihydrochloride] | 1e-06 M | 53 nM | -69% |  |  | -50% |
| O=C(CNC(=O)C(CCC1CCNCC1)CCC1CCNCC1)NCC(NS(=O)(=O)c1ccc(Cl)cc1)C(=O)O (centres unmarked) [Example 34, 2-([(4-Chlorophenyl)sulphonyl]amino)-3-{[2-({4-(4-piperidyl)-2-[2-(4-piperidyl)ethyl]butanoyl}amino)acetyl]amino}propanoic Acid Dihydrochloride] | 8.9e-07 M | 500 nM | -19% |  |  | -8% |
| COc1ccc(C(CC(=O)O)NC(=O)CNC(=O)C(CCC2CCNCC2)CCC2CCNCC2)cc1OC (centres unmarked) [Example 8, 3-(3,4-Dimethoxyphenyl)-3-{[2-({4-(4-piperidyl)-2-[2-(4-piperidyl)ethyl]butanoyl}amino)acetyl]amino}propanoic Acid Dihydrochloride] | 1.6e-06 M | 35000 nM |  | -10% | -31% |  |
| O=C(O)CC(NC(=O)CNC(=O)C(CCC1CCNCC1)CCC1CCNCC1)c1ccc2c(c1)OCO2 (centres unmarked) [Example 5, 3-(1,3-Benzodioxol-5-yl)-3-{[2-({4-(4-piperidyl)-2-[2-(4-piperidyl)ethyl]butanoyl}amino)acetyl]amino}-propanoic Acid Dihydrochloride] | 2.8e-07 M | 2000 nM | -15% | -63% | -66% |  |
| O=C(CNC(=O)C(CCC1CCNCC1)CCC1CCNCC1)NCC(NS(=O)(=O)c1ccc(-c2ccccc2)s1)C(=O)O (centres unmarked) [Example 71, 2-{[(5-Phenyl-2-thienyl))sulphonyl]amino}-3-{[2-({4-(4-piperidyl)-2-[2-(4-piperidyl)ethyl]butanoyl}amino)acetyl]amino}propanoic Acid Dihydrochloride] | 1.9e-07 M | 63 nM | -72% |  |  | -70% |
